Measured values published in US5861400A, “Pharmaceutical compounds” (Xenova Limited, priority 1994, dated 1999).

Assays:
AR 1.0 cells [1] = assay: Drug accumulation assay (tritiated daunorubicin, AR 1.0 cells); assay type: cell-based, mouse; conditions: for Emax / IC50: Mus musculus; for Emax / MAX accumulation (% 100 μm VRP): 100% = accumulation with 100 μM Verapamil, compounds 100 nM to 100 μM, 1 hr; for Emax: read-out: MAX accumulation (% 100 μm VRP); for IC50: 1 h, daunorubicin accumulation, 37° C., DNR 2 μM
Procedure: The EMT6 mouse mammary carcinoma cell line and the MDR resistant subline AR 1.0 were cultured in RPMI 1640 medium containing 10% foetal calf serum and 2mM glutamine at 37° C. in 5% CO2. Cells were passaged between 1 in 200 and 1 in 2000 in the case of the parental cell line and between 1 in 20 and 1 in 200 in the case of the MDR resistant subline, after trypsinisation (0.25% trypsin, 0.2 gl^-1, EDTA).
1. Drug accumulation assay
AR 1.0 cells were seeded into 96 well opaque culture plates (Canberra Packard). The assay medium contained a mixture of tritiated Daunorubicin (DNR), a cytotoxic agent, and unlabelled DNR (0.25μ Ci/ml; 2 μM). Compounds of formula A were serially diluted in assay medium over a range of concentrations from 100 nM to 100 μM. The cells were incubated at 37° C. for 1 hr before washing and counting of cell associated radioactivity. Each assay included a titration of the known resistance modifying agent Verapamil as positive control. Results were expressed as % maximum accumulation where 100% accumulation is that observed in the presence of 100 μM Verapamil.

AR 1.0 cells [2] = assay: Proliferation/toxicity assay, compound alone and with cytotoxic agent (sulphorhodamine B); assay type: cell-based, mouse; conditions: 0.5-1 μM, alone

IC50 (AR 1.0 cells [1]) | Compound | Emax (AR 1.0 cells [1]) | further results
– | COc1ccc(/C=c2/c(=O)[nH]/c(=C\c3ccoc3)c(=O)n2C)cc1 [Compound 1563, (3Z,6Z)-3-(3-Furyl)methylene-6-(4-methoxybenzylidene)-1-methyl-2,5-piperazinedione] | 32.9% | –
– | COc1ccc(/C=c2/c(=O)[nH]/c(=C\c3cccs3)c(=O)n2C)cc1 [Compound 1564, (3Z,6Z)-6-(4-Methoxybenzylidene)-1-methyl-3-(2-thienylmethylene)-2,5-piperazinedione] | 46.3% | –
– | COc1ccc(/C=c2/c(=O)[nH]/c(=C\c3cn(C(=O)OC(C)(C)C)c4ccccc34)c(=O)n2C)cc1 [Compound 1565, (3Z,6Z)-6-(4-Methoxybenzylidene)-1-methyl-3-(1-tert-butoxycarbonyl-3-indolyl)methylene-2,5-piperazinedione] | 37.3% | –
– | Cn1c(=O)/c(=C/c2ccccc2)[nH]c(=O)/c1=C/c1cccs1 [Compound 1569, (3Z,6Z)-3-Benzylidene-1-methyl-6-(2-thienylmethylene)-2,5-piperazinedione] | 46% | –
– | COc1ccc(/C=c2\[nH]c(=O)/c(=C/c3ccoc3)n(C)c2=O)cc1 [Compound 1596] | 47.7% | –
– | Cn1c(=O)/c(=C/c2ccccc2)[nH]c(=O)/c1=C/c1ccsc1 [Compound 1641, (3Z,6Z)-3-Benzylidene-1-methyl-6-(3-thienylmethylene)-2,5-piperazinedione] | 50.5% | –
80 µM | COc1ccc(/C=c2/c(=O)n(C)/c(=C\C=Cc3ccccc3)c(=O)n2C)cc1 [Compound 1777, (3Z,6Z)-3-Cinnamylidene-6-(4-methoxybenzylidene)-1,4-dimethyl-2,5-piperazinedione] | 50% | –
20 µM | Cn1c(=O)/c(=C/c2ccccc2[N+](=O)[O-])n(C)c(=O)/c1=C/c1cccs1 [Compound 1877, (3Z,6Z)-1,4-dimethyl-6-(2-nitrobenzylidene)-3-(2-thienylmethylene)-2,5-piperazinedione] | – | –
– | Cn1c(=O)/c(=C/c2cn(C(=O)OC(C)(C)C)c3ccccc23)nc(OCCCN2C(=O)c3ccccc3C2=O)/c1=C/c1ccccc1 [Compound 1895, (3Z,6Z)-6-Benzylidene-1-methyl-5-(3-phthalimidopropoxy)-3-(l-tert-butoxycarbonyl-3-indolyl)methylene-3,6-dihydro-2-pyrazinone] | 12% | –
10 µM | Cn1c(=O)/c(=C/c2ccccc2)n(CCCN2C(=O)CCC2=O)c(=O)/c1=C/c1ccccc1 [Compound 1932, (3Z,6Z)-3,6-Dibenzylidene-4-methyl-1-(3-succinimidopropyl)-2,5-piperazinedione] | – | –
1 µM | Cn1c(=O)/c(=C/c2ccccc2)nc(OCCCN2C(=O)CCC2=O)/c1=C/c1ccccc1 [Compound 1934, (3Z,6Z)-3,6-Dibenzylidene-1-methyl-5-(3-succinmidopropoxy)-3,6-dihydro-2-pyrazinone] | – | –
6 µM | Cn1c(=O)/c(=C/c2ccccc2)nc(OCCCN2C(=O)C(=O)c3ccccc32)/c1=C/c1ccccc1 [Compound 1935, (3Z,6Z)-3,6-Dibenzylidene-5-(2,3-dioxo-1-indolinyl)propoxy-1-methyl-3,6-dihydro-2-pyrazinone] | – | –
– | COc1cccc2c1C(=O)c1c(O)c3c(c(O)c1C2=O)C[C@@](O)(C(=O)CO)C[C@@H]3O[C@H]1C[C@H](N)[C@H](O)[C@H](C)O1 [doxorubicin, reference compound] | – | toxicity of doxorubicin alone to AR 1.0 cells (AR 1.0 cells [2]): non-toxic
– | (3Z,6Z)-3-Benzylidene-6-(2-furyl)-1,4-dimethyl-2,5-piperazinedione [Compound 1799] | – | MAX accumulation (% 100 μm VRP) (AR 1.0 cells [1]): 40.0%
– | (3Z,6Z)-6-Benzylidene-1-methyl-3-(1-tert-butoxycarbonyl-3-(l-tert-butoxycarbonyl-3-indolyl)methylene-2,5-piperazinedione [Compound 1894] | – | MAX accumulation (% 100 μm VRP) (AR 1.0 cells [1]): 36.0%
– | (3Z,6Z)-6-Benzylidene-3-furylidene-1,4-dimethyl-2,5-piperazinedione [Compound 1836] | – | MAX accumulation (% 100 μm VRP) (AR 1.0 cells [1]): 14.0%
